“And” between values parts separate entries of the source, which are not always exact repeats. Identical values can stand only once.
How the values were obtained:
[1] = test system: HD fibroblasts (CAG)180; assay: small-pool PCR across HD repeat tract, HD primary fibroblasts GM09197; type: cell-based, human; details: 50 uM NA, 40 days
Procedure: The construction of the HT1080-(CAG)850 cell model was described previously (Sathasivam et al., 1997, Hum. Genet., 99:692-5). Briefly, HT1080 (ATCC) human fibrosarcoma cells were co-transfected with a plasmid (LC15-R) containing 800-850 (CTG)●(CAG) repeats (Nakatani et al., 2005, Nat. Chem. Biol., 1:39-43) and a plasmid encoding PhiC31 integrase. Transfection was performed with a Nucleofector (Lonza, Basel, Switzerland), and stably transfected clones were selected with puromycin. […] The HT1080-non-transcribing (CAG)850 cell model was established by transfecting a plasmid modified from pLC16 by inserting an additional SV40 polyadenylation signal downstream of the repeats (in addition to the original polyadenylation signals located upstream of the repeats), so that CAG/CTG repeats are floxed by transcription-terminator elements. The AttB-PhiC31 system has been widely used for single copy integration. […] The HT1080 model cells and an HD primary fibroblast cell line, GM09197 (Coriell Biorepository) with a large expanded allele of 180 CAG repeats and a non-expanded allele of 23 repeats (Sathasivam et al., 1997, Hum. Genet., 99:[…]), the HD primary fibroblast cell line, GM02191 (Coreill Biorepository) with an expanded allele of 43 CAG repeats and a non-expanded allele of 19 repeats, were cultured at 37° C. with 5% CO2 in Dulbecco's modified Eagle's medium supplemented with 10% fetal bovine serum and 1% penicillin/streptomycin. Cells were treated with or without continuous exposure to 50-μM NA for 30 days (HT1080 cells) or for 40 days (fibroblast cells). For experiments on non-proliferating cells, HT1080 cells were grown to confluence and then treated for the same period. WST-1 assay was performed according to the manufacturer's instructions (Roche, Basel, Switzerland). All cell lines were tested to be free of Mycoplasma. Three biological replicates were performed for each experiment.
Genomic DNA was extracted from HT1080-(CAG)850 clones and HD primary fibroblasts using the Gentra Puregene Cell Kit (Qiagen, Valencia, Calif.). The expanded (CTG)●(CAG) repeats were sized by small-pool PCR (sp-PCR) followed by Southern blot as described previously (Sathasivam et al., 1997, Hum. Genet., 99:692-5). For HT1080 models, small-pool PCR (spPCR) was performed with the input of 1.4-1.7 genome equivalents. The repeat size difference in the models is, at most, 3000 base-pairs, therefore, being strictly conservative, a bias toward amplifying the shorter allele can be possible, even under optimized PCR conditions described herein. For HD primary fibroblasts, sp-PCR & Southern blots were performed as described previously with slight modifications (Tome et al., 2013, PLoS Genet., 9:e1003280). Briefly, the PCR primers listed in Table 1 were used, and blots were hybridized with a DIG-labeled (CAG)7 locked nucleic acid probe (Nakamori et al. 2009, Neuromuscul. Disord., 19:759-62). At least 50 alleles were analyzed for each of the three experiments (more than 150 alleles for a total study). Repeat analyses are summarized in Table 2, compiled from complete small-pool-PCR datasets for each repetition of each experiment. For the histograms in FIGS. 4D, 4E, 10, 11, 5B, 5D, 5E, 14 and 15B, the Y-axis, “% of repeat population” was calculated by determining the proportion of >50 individual small-pool PCR reactions across the CAG repeat tract, that harbored a certain size of repeat product with a certain length. Cell clones were grown 30 or 40 days with or without NA (see, for example, Sathasivam et al., 1997, Hum. Genet., 99:692-5). Specifically, the histograms of repeat length distributions were from at least two different cell clones. Length distributions were determined as follows: Small-pool PCR followed by Southern blot for analysis of CAG/CTG repeat length.

[2] = test system: long (CTG)20 slip-out; assay: in vitro repair assay by HeLa cell extracts, long (CTG)20 slip-out; type: biochemical, human
Excerpt: Panel A of […] is a schematic of the in vitro repair assay. Starting DNAs and repair products released the repeat-containing fragment, which is resolved on PAGE and assessed on a molar level by Southern blotting and densitometry. Repair of different DNA substrates containing a long (CAG)20 slip-out (Panel B of FIG. 3) long (CTG)20 slip-out (Panel C of FIG. 3), a single CAG slip-out (Panel D of FIG. 3) or a single G-T mismatch (Panel E of FIG. 3), in the absence or in the presence of NA. Slipped-DNA substrates were prepared from hybrids of (CAG)50●(CTG)30, (CAG)30●(CTG)50 or of (CAG)50●(CTG)49. Repair of the G-T mismatch reconstitutes a HindIII restriction site, as shown schematically. Graphs show percentage repair efficiencies to repaired product relative to all repeat-containing fragments in the lane, values are normalized to the NA-free efficiency. […]
To determine how the binding of NA to slipped DNA structures affects repair, a series of circular slipped heteroduplex substrates was made with an excess of repeats with a nick located either 5′ or 3′ of the slip-out (FIG. 3). […] All these substrates were processed in […] by HeLa extracts and then were assessed for repair. Repair products were analyzed by Southern blotting, probed for the repeat-containing fragment, and compared with starting material, which permitted quantitative assessment of repair efficiency at a molar level. […]

[3] = test system: d(CAG)9; details: d(CAG)9 immobilization 497 RU; cited from earlier work
[4] = single experiments Ex 1-3, cut-off ±10 repeats

With naphthyridine-azaquinolone the “% Contraction” value ([1]; Total) was 31.2%, the “% Expansion” value ([1]; Total) was 13.6% and the “% Unchanged” value ([1]; Total) was 55.2%. The Average repeat size ([1]; Total) was 177.5 number of repeats, the “% Unchanged” value ([1]; single experiments Ex 1-3) was 58.6% and 56.1% and 50.9% and the Average repeat size ([1]; single experiments Ex 1-3) was 178.5 number of repeats and 176.5 number of repeats and 177.5 number of repeats. The “% Contraction” value [1, 4] was 28.8% and 30.8% and 34.0%, the “% Expansion” value [1, 4] was 12.6% and 13.1% and 15.1% and the “effect on repair of long (CTG)20 slip-outs” value [2] was “doesn't affect the repair efficiency”. The “changes in the SPR intensity on NA binding” value [3] was 140 RU.

Reference: patent US11672786B2, “Methods of treating diseases associated with repeat instability” (The Hospital for Sick Children, priority 2016, dated 2023)
